The values that follow come from patent US8017735B2, “Anti-IGFR1 antibody therapeutic combinations” (Schering Corporation, priority 2003, dated 2011).

Values joined by “and” are separate entries in the source; they are usually repeats but may differ in a detail not shown here. Equal values may be shown once.

The test system of this assay is MCF7 cells. The assay is described as follows: Proliferation assay (Cell Titer-Glo) with anti-IGFR1 antibody and a chemotherapeutic agent, MCF7 cells. The following applies: 4-hydroxy tamoxifen alone 20000 ng/mL. Type of assay: cell-based. How it is done: The ability of cells in culture to proliferate when exposed to varying concentrations of the 19D12/15H12 wild-type or 19D12/15H12 LCF/HCA anti-IGFR1 antibody and either paclitaxel, gefitinib, lonafarnib 4-hydroxy tamoxifen or doxorubicin was evaluated in this example.
Cell Preparation. […] The cells were trypsinized, counted and resuspended at a concentration of 25000 cells/ml in 10% HI-FBS (heat-inactivated fetal bovine serum) RPMI medium containing NEAA (non-essential amino acids), L-Glu, MEM Vitamins and PS. 100 ul of cell suspension (2500 cells) was added to each well of a BD Falcon 96 well black, clear bottom TC treated plate. The cells were allowed to attach and spread overnight at 37° C. The 10% RPMI solution was replaced with 100 μl RPMI containing 2% HI-FBS containing NEAA, L-Glu, MEM Vitamins and PS.
Solution Preparation. All assay reagents were prepared in RPMI containing 2% HI-FBS at 20× concentration and serial diluted for a total of 10 test concentrations per treatment. Every test point was prepared in triplicate on separate assay plates.
Reagent 1 and 19D12/15H12 or 19D12/15H12 LCF/HCA were set up individually as dose responses as well as in combination with each other. Cell proliferation was measured on Day4.
Assay. Cell proliferation was measured using the Promega Cell Titer-Glo Luminescent Cell Viability Assay (Promega Corp.; Madison, Wis.). This assay provided a method for determining the number of viable cells in culture based on quantitation of ATP in the culture, which indicates the presence of metabolically active cells.
The assay reagents and assay plates were equilibrated to room temperature and prepared immediately before addition to the assay plates. One volume of assay reagent was added to each well of the assay plate and shaken on an orbital platform for at least ten minutes to allow for equilibration of the ATP reaction and to ensure total lysis of all cells in the assay plate. […] Luminescence was detected on Wallac 420 Plate Reader with stacker.
The units in the tables (proliferation index) are arbitrary and are proportional to the number of viable cells observed in the culture under each respective condition.
In Tables 2-6, “ug” indicates micrograms and “uM” indicates micromolar.
For orientation: In ATP-based viability assays light output follows the ATP content of the culture.

For `CC/C(=C(\c1ccc(O)cc1)c1ccc(OCCN(C)C)cc1)c1ccccc1` [4-hydroxy tamoxifen, 4-hydroxytamoxifen, reference compound], the proliferation index is 80 and 72 and 87 and 71 and 61 and 67 and 70 and 92.
